Data as given in PMC4639830, “Inhibition of DYRK1A and GSK3B induces human β-cell proliferation” (Nature Communications, 2015).
Entries after “also recorded” stand apart in the source; their conditions may differ.

Experiments:
[1] = test system: β-cells from dissociated adult primary human islets; assay: Human β-cell proliferation assay, EdU incorporation, dissociated islets; assay type: cell-based; conditions: for human β-cell proliferation (EdU incorporation), in words: dispersed human islets; for effect of co-treatment on human β-cell proliferation induced by GNF4877: GNF4877 2 μM, FK506 12 nM to 1 μM
Protocol: (§1) Rat or human β-cell proliferation assays were performed using dissociated primary rat or human islets. Islets were treated with the indicated compounds in the presence of EdU for 4 days before fixing and staining. […] For intact islet assays, primary human islets were treated for 7 or 8 days (as indicated in the legend). Rat dissociated islets were cultured in RPMI medium containing 10% FBS and human dissociated islets were cultured in PIM-S media (Prodo laboratories) with 10% human […].

[2] = test system: adult rat primary β-cells; assay: Rat β-cell proliferation assay, EdU incorporation, dissociated islets; assay type: cell-based; conditions: for rat β-cell proliferation (EdU incorporation), in words: dispersed rat islets; for β-cell proliferation in combination with GNF4877: sub-EC50 GNF4877, Figs 7a,d (human and rat β-cells); for primary rat β-cell proliferation, combination of Chiron99021 with TG003: 4 days
Protocol: as §1

[3] = molecular target: Gsk3b (Homo sapiens, UniProt P49841); assay: Gsk3b biochemical kinase assay
Chain of Gsk3b (P49841 whole entry, species assumed): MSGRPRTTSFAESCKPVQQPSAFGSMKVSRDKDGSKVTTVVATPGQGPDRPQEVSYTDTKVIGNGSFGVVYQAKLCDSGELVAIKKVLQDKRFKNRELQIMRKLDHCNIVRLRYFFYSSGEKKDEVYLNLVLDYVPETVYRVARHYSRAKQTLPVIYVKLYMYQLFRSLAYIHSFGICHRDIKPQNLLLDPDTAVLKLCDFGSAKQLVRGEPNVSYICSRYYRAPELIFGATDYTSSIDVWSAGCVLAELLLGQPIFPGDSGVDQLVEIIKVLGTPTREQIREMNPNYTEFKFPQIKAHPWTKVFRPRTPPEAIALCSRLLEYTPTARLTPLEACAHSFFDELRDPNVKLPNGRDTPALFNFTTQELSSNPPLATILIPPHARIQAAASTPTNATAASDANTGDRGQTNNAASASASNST

[4] = molecular target: T1, Dyrk1a (Homo sapiens, UniProt Q13627); assay: Dyrk1a kinase activity, biochemical assay
T1 construct: purchased Ambit KINOMEscan

[5] = test system: β-catenin nuclear localization in primary rat islets; assay: β-Catenin nuclear translocation; assay type: cell-based
Protocol: At the end of the treatment, cells were fixed with 4% paraformaldehyde, blocked and permeabilized, and stained by standard immunofluorescence techniques for β-catenin (Cell signaling, #9562L; dilution 1:500), NFATc1 (Santa Cruz, rabbit polyclonal, SC-7294; dilution 1:200) or NFAT3c (Santa Cruz, SC-8321; dilution 1:200) and nuclear DNA was stained with DAPI (Molecular Probes; dilution 1:1,000). EdU incorporation was measured by click reaction with AlexaFluor-647-azide (Invitrogen). Plates were imaged with confocal microscope and analysed by Metamorph (Molecular Devices).

[6] = test system: rat islet cells; assay: eFluor670 vital dye dilution (cell division); assay type: cell-based; conditions: 5 days treatment
Excerpt: The extent of proliferation of human islet cells was too low to be detected with this method, consistent with the lower level of EdU incorporation induced in human islets.

| Compound | human β-cell proliferation (EdU incorporation), in words [1] | rat β-cell proliferation (EdU incorporation), in words [2] | further results |
| --- | --- | --- | --- |
| O=C1Cc2c([nH]c3ccc(Br)cc23)-c2ncccc2N1 [1-Akp] | without any significant effects on human β-cell proliferation | significantly lower extent than GNF7156 and GNF4877 |  |
| Nc1ncnc2c1c(I)cn2[C@@H]1O[C@H](CO)[C@@H](O)[C@H]1O [5-IT] | induced β-cell proliferation | induced β-cell proliferation |  |
| COC(=O)C1=C(C)NC(C)=C([N+](=O)[O-])C1c1ccccc1C(F)(F)F (stereo not drawn) [Bay K8644] |  |  | β-cell proliferation in combination with GNF4877 [2]: showed additive activity with GNF4877 |
| Cc1cnc(-c2cnc(NCCNc3ccc(C#N)cn3)nc2-c2ccc(Cl)cc2Cl)[nH]1 [Chiron99021] | without any significant effects on human β-cell proliferation | significantly lower extent than GNF7156 and GNF4877 | primary rat β-cell proliferation, combination of Chiron99021 with TG003 [2]: additive induction of primary rat β-cell proliferation |
| C=CC[C@@H]1/C=C(\C)C[C@H](C)C[C@H](OC)[C@H]2O[C@@](O)(C(=O)C(=O)N3CCCC[C@H]3C(=O)O[C@H](/C(C)=C/[C@@H]3CC[C@@H](O)[C@H](OC)C3)[C@H](C)[C@@H](O)CC1=O)[C@H](C)C[C@@H]2OC [FK506] |  |  | effect of co-treatment on human β-cell proliferation induced by GNF4877 [1]: reduced by co-treatment |
| Nc1ncc(-c2ccccc2)nc1C(=O)Nc1ccccc1N1CCC(C(=O)O)CC1 [GNF6324] | completely inactive | completely inactive; also recorded: did not induce EdU incorporation in rat β-cells | potency on Gsk3b, in words [3]: retained similar potency to GNF7156 on Gsk3b; IC50 [4]: > 50 µM; β-catenin nuclear translocation [5]: capable of inducing nuclear localization of β-catenin; eFluor670 staining intensity relative to control [6]: nor cause a decrease in eFluor670 staining |
| [Cl-].[Li+] [LiCl] | without any significant effects on human β-cell proliferation | significantly lower extent than GNF7156 and GNF4877 |  |
| CCN1/C(=C/C(C)=O)Sc2ccc(OC)cc21 [TG003] | induced β-cell proliferation | induced β-cell proliferation | primary rat β-cell proliferation, combination of Chiron99021 with TG003 [2]: additive induction of primary rat β-cell proliferation |
| COc1ccc(Cl)cc1C(=O)NCCc1ccc(S(=O)(=O)NC(=O)NC2CCCCC2)cc1 [glibenclamide] |  |  | β-cell proliferation in combination with GNF4877 [2]: showed additive activity with GNF4877 |
| COc1ccc2c(c1)[nH]c1c(C)nccc12 [harmine] | induced β-cell proliferation | induced β-cell proliferation |  |
| cyclosporin A [CsA] |  |  | effect of co-treatment on human β-cell proliferation induced by GNF4877 [1]: reduced by co-treatment |
